# Assay results from ChEMBL document CHEMBL3091387, “DPMA, a deoxypodophyllotoxin derivative, induces apoptosis and anti-angiogenesis in non-small cell lung cancer A549 cells” (Bioorg Med Chem Lett, 2013).
# The source made the active and inactive calls. The rule behind the calls is not given here.
# Experiments:
# [1] = tested on: A549; test: Induction of ROS generation in human A549 cells after 24 hrs by DCFH-DA dye-based laser confocal microscopic analysis; assay type: functional, cell-based
# [2] = tested on: A549; test: Induction of apoptosis in human A549 cells assessed as early apoptotic cells at 1 uM after 24 hrs by annexin V-FITC/propidium iodide staining-based flow cytometric analysis (reference value: 0.18%); assay type: functional
# [3] = tested on: A549; test: Cytotoxicity against human A549 cells assessed as cell viability at 0.2 to 1 uM by MTT assay; assay type: functional, cell-based; details: TDE = time-dependent effect
# [4] = tested on: A549; test: Induction of apoptosis in human A549 cells after 48 hrs by Hoechst 33258 staining-based phase contrast microscopic analysis; assay type: functional, cell-based
# [5] = tested on: A549; test: Upregulation of p53 protein expression in human A549 cells by Western blot analysis; assay type: functional, cell-based; details: TDE = time-dependent effect
# [6] = tested on: A549; test: Downregulation of phosphorylated cdc-2 protein expression in human A549 cells by Western blot analysis; assay type: functional, cell-based; details: TDE = time-dependent effect
# [7] = tested on: A549; test: Induction of apoptosis in human A549 cells assessed as late apoptotic cells at 5 uM after 24 hrs by annexin V-FITC/propidium iodide staining-based flow cytometric analysis (reference value: 0.65%); assay type: functional
# [8] = tested on: A549; test: Induction of apoptosis in human A549 cells assessed as nuclear condensation at 0.5 to 1 uM after 48 hrs by Hoechst 33258 staining-based phase contrast microscopic analysis; assay type: functional, cell-based
# [9] = tested on: A549; test: Upregulation of cdc-2 protein expression in human A549 cells by Western blot analysis; assay type: functional, cell-based; details: TDE = time-dependent effect
# [10] = target: Tubulin (Homo sapiens) (UniProt P68371+Q9H4B7+P0DPH7+P68366+Q13509+Q71U36+P04350+Q3ZCM7+P07437+P68363+Q9BQE3+Q6PEY2+Q13885+Q9BVA1+Q9BUF5); test: Binding affinity to tubulin in human A549 cells assessed as inhibition of microtubule network formation at 1 uM after 12 to 36 hrs by indirect immunofluorescence assay; assay type: cell-based
# [11] = tested on: A549; test: Induction of apoptosis in human A549 cells assessed as early apoptotic cells at 0.5 uM after 24 hrs by annexin V-FITC/propidium iodide staining-based flow cytometric analysis (reference value: 0.18%); assay type: functional
# [12] = tested on: A549; test: Induction of apoptosis in human A549 cells assessed as late apoptotic cells at 1 uM after 24 hrs by annexin V-FITC/propidium iodide staining-based flow cytometric analysis (reference value: 0.65%); assay type: functional
# [13] = tested on: A549; test: Induction of apoptosis in human A549 cells assessed as increase in cleaved caspase-3 protein expression at 1 uM after 24 hrs by immunofluorescence assay; assay type: functional, cell-based
# [14] = tested on: A549; test: Induction of apoptosis in human A549 cells assessed as cell shrinkage at 0.5 to 1 uM after 48 hrs by Hoechst 33258 staining-based phase contrast microscopic analysis; assay type: functional
# [15] = tested on: A549; test: Induction of apoptosis in human A549 cells at 0.5 to 1 uM by Hoechst 33258 staining-based phase contrast microscopic analysis; assay type: functional, cell-based; details: TDE = time-dependent effect
# [16] = tested on: A549; test: Induction of apoptosis in human A549 cells assessed as dead cells at 0.5 uM after 24 hrs by annexin V-FITC/propidium iodide staining-based flow cytometric analysis (reference value: 0.69%); assay type: functional
# [17] = tested on: A549; test: Induction of apoptosis in human A549 cells assessed as inhibition of Bcl-2 protein expression at 1 uM after 24 hrs by immunofluorescence assay; assay type: functional, cell-based
# [18] = tested on: A549; test: Induction of apoptosis in human A549 cells assessed as dead cells at 1 uM after 24 hrs by annexin V-FITC/propidium iodide staining-based flow cytometric analysis (reference value: 0.69%); assay type: functional
# [19] = tested on: A549; test: Upregulation of cyclin B1 protein expression in human A549 cells by Western blot analysis; assay type: functional, cell-based; details: TDE = time-dependent effect
# [20] = tested on: A549; test: Cytotoxicity against human A549 cells assessed as cell viability after 48 hrs by MTT assay; assay type: functional, cell-based
# [21] = tested on: A549; test: Induction of apoptosis in human A549 cells assessed as increase in apoptotic cells after 24 hrs by annexin V-FITC/propidium iodide staining-based flow cytometric analysis; assay type: functional, cell-based
# [22] = tested on: A549; test: Induction of apoptosis in human A549 cells assessed as nuclear fragmentation at 0.5 to 1 uM after 48 hrs by Hoechst 33258 staining-based phase contrast microscopic analysis; assay type: functional, cell-based
# [23] = tested on: A549; test: Induction of apoptosis in human A549 cells assessed as increase in Bax protein expression at 1 uM after 24 hrs by immunofluorescence assay; assay type: functional, cell-based
# [24] = tested on: A549; test: Induction of apoptosis in human A549 cells assessed as nuclear condensation dispersed throughout cytoplasm at 1 uM after 36 hrs by DAPI staining-based indirect immunofluorescence assay; assay type: functional, cell-based
# [25] = tested on: A549; test: Induction of apoptosis in human A549 cells assessed as nuclear fragmentation dispersed throughout cytoplasm at 1 uM after 36 hrs by DAPI staining-based indirect immunofluorescence assay; assay type: functional, cell-based
# [26] = tested on: HUVEC; test: Antiangiogenic activity in HUVEC assessed as inhibition of VEGF-induced tube formation at 0.5 to 1 uM after 12 hrs by phase contrast inverted microscopic analysis; assay type: functional, cell-based; details: Homo sapiens
# [27] = tested on: A549; test: Induction of apoptosis in human A549 cells at 0.5 to 5 uM by annexin V-FITC/propidium iodide staining-based flow cytometric analysis; assay type: functional, cell-based; details: TDE = time-dependent effect
# [28] = tested on: A549; test: Induction of apoptosis in human A549 cells assessed as dead cells at 5 uM after 24 hrs by annexin V-FITC/propidium iodide staining-based flow cytometric analysis (reference value: 0.69%); assay type: functional
# [29] = tested on: A549; test: Induction of apoptosis in human A549 cells assessed as early apoptotic cells at 5 uM after 24 hrs by annexin V-FITC/propidium iodide staining-based flow cytometric analysis (reference value: 0.18%); assay type: functional
# [30] = tested on: A549; test: Induction of apoptosis in human A549 cells assessed as cell shrinkage at 1 uM after 36 hrs by DAPI staining-based indirect immunofluorescence assay; assay type: functional
# [31] = Cytotoxicity activity human MSC assessed as cell viability at 0.01 to 1 uM after 48 hrs by MTT assay
# [32] = tested on: A549; test: Induction of apoptosis in human A549 cells assessed as late apoptotic cells at 0.5 uM after 24 hrs by annexin V-FITC/propidium iodide staining-based flow cytometric analysis (reference value: 0.65%); assay type: functional
smiles,measurement,setting,value
COc1cc([C@@H]2c3cc4c(cc3C[C@H]3COC(=O)[C@@H]32)OCO4)cc(OC)c1OC(=O)N[C@H](CCSC)C(N)=O,Activity,[1],Dose-dependent effect
same,Activity,[2],9.28%
same,Activity,[3],tde
same,Activity,[4],Dose-dependent effect
same,Activity,[5],tde
same,Activity,[6],tde
same,Activity,[7],27.54%
same,Activity,[8],Active
same,Activity,[9],tde
same,inhibition,[10],Active
same,Activity,[11],6.22%
same,Activity,[12],13.83%
same,Activity,[13],Active
same,Activity,[14],Active
same,Activity,[15],tde
same,Activity,[16],2.76%
same,inhibition,[17],Active
same,Activity,[18],15.73%
same,Activity,[19],tde
same,Activity,[20],Dose-dependent effect
same,Activity,[21],Dose-dependent effect
same,Activity,[22],Active
same,Activity,[23],Active
same,Activity,[24],Active
same,Activity,[25],Active
same,inhibition,[26],Active
same,Activity,[27],tde
same,Activity,[28],23.43%
same,Activity,[29],18.41%
same,Activity,[30],Active
same,Activity,[31],Non-toxic
same,Activity,[32],6.11%
